Reference: patent US8748105B2, “Method for selecting a candidate drug compound” (Pepscan Systems B.V., priority 2003, dated 2014)
Starred links: 1 amine or outer side, 2 acyl side, 3 side chain; linkers in the order of their positions; H or OH if unused. Positions of bridges follow the written chain, without caps; N, C: chain ends. T2 = dibromobenzene scaffold (1,3-bis(bromomethyl)benzene, m-dibromoxylene) forming thioether links to the two Cys; resin = solid-support resin (cross-linked polystyrene) to which the C-terminal amino acid is attached; mXylylene = c1cc(C[*:1])cc(C[*:2])c1

Columns and labels:
[1] = test system: anti-FSH-β mAb 2; test: Loopscan: sandwich ELISA of solid-phase cyclized or linear 12-mer FSH β3-loop peptides; format: binding; conditions: solid-phase 12-mer peptides; mAb 2 up to 10 μg/mL
Method: FIG. 12: ELISA results of the binding of anti-FSH monoclonal antibody 2 (10 μg/mL) in 3 μL miniwells containing overlapping a) cyclized (with m-dibromoxylene) and b) linear 12-mer peptides of the β3-loop of FSH-beta; Sequence of binding peptide: (AA68-AA79) Ac-CRVPGAAHHADSLC-resin (SEQ ID NO:5).
The formation of peptide loops via reaction of a linear peptide containing two free sulfhydryl groups with 1,3-bis(bromomethyl)benzene scaffold was also carried out on a polypropylene surface grafted with polyacrylic acid (6% solution containing CuSO4, irradiation using γ-radiation at a dose of 12 kGy) and functionalized with amino groups via coupling with t-butyloxycarbonyl-hexamethylene diamine (Boc-HMDA) using dicyclohexylcarbodiimide (DCC) with N-hydroxybenzotriazole (HOBt) and subsequent deprotection of the Boc-groups using trifluoroacetic acid (TFA). Standard Fmoc peptide chemistry was used to synthesize a set of overlapping linear peptides of 14 amino acid long peptides corresponding to the β3-loop of FSH in separate microwells of 3 μL each using our previously developed minicard format. Each peptide was synthesized with a Cys-residue in position 1, followed by the overlapping sequences of the FSH β3-loop (2-13, 3-14, 4-15, etc.) followed by another Cys-residue in the final position. […]

[2] = biological target: mAb 1 (monoclonal antibody specific for beta-FSH); test: Binding of beta-FSH mimics (T4 double-loop constructs) to beta-FSH-specific monoclonal antibody mAb 1 (Kd)
Source text: For the inhibition of the specific interaction with beta-FSH and its receptor, there is a need for structural mimics of the hormone. Although there is no crystallographic structure describing the interaction of beta-FSH with its receptor, it is very likely that this binding site is discontinuous in nature. We designed and synthesized a number of double-loop peptide construct on a tetrabromo-(T4)scaffold that could be used as beta-FSH mimics. We used the synthetic strategy for structural fixation of linear peptides as outlined above. We tested the capacity of these small peptide-based beta-FSH mimics to bind to a number of different monoclonal antibodies specific for beta-FSH. […] Furthermore, the beta-FSH mimics can be used successfully for the production of antisera that react specifically with beta-FSH.

[3] = biological target: mAb 2 (anti-FSHβ monoclonal antibody); test: Binding of looped peptide mimics of FSH-β to anti-FSH-β monoclonal antibody mAb 2 (Kd)
Source text: We used the synthetic strategy for structural fixation of linear peptides as outlined above. We tested the capacity of these small peptide-based beta-FSH mimics to bind to a number of different monoclonal antibodies specific for beta-FSH.

[4] = biological target: mAb 3468 (anti-beta-CG monoclonal antibody); test: Binding of beta-CG mimics (T4 double-loop constructs) to monoclonal antibody 3468 (Kd)
Source text: For the inhibition of the specific interaction with hCG and its receptor there is a need for compounds which structurally mimic the hormone. […] It is, therefore, likely that binding of beta-CG to the receptor also involves a discontinuous binding on the hormone. Provided is the design and synthesis of small peptide-based beta-CG mimics that strongly bind to monoclonal antibody 3468. We used the synthetic strategy for structural fixation of linear peptides as outline above.
The beta-CG mimics are advantageously used for the production of antisera that react specifically with hCG.

| binding to anti-FSH-β mAb 2 in sandwich ELISA (in words) [1] | Kd [2] [nM] | Kd [3] [nM] | Kd [4] [nM] | Substance |
| --- | --- | --- | --- | --- |
| binds strongly | – | – | – | Ac-CRVPGAAHHADSLC-resin (linker 1-14 via mXylylene (inferred); also: C-terminus resin-bound) [68-79] |
| – | 270 | 2500 | 15000 | c-T2-[Ac-CRVPGAAHHADSLC-NH2] (linker 1-14 via T2 (inferred)) [compound 1] |
